Data: PMC11864979, “First-in-class ultralong-target-residence-time p38α inhibitors as a mitosis-targeted therapy for colorectal cancer” (Nature Cancer, 2025)
Read-outs that look alike come from different tables or passages of the source.

Assays:
Assay in all cases: selectivity profiling in a panel of 340 wild-type kinases (Reaction Biology Europe)
Type in all cases: binding
340 wild-type kinases [1] = biological target: T1, 340 wild-type kinases (Homo sapiens, UniProt O00418)
T1 construct: purchased Reaction Biology Europe
T1 sequence (O00418 1-725): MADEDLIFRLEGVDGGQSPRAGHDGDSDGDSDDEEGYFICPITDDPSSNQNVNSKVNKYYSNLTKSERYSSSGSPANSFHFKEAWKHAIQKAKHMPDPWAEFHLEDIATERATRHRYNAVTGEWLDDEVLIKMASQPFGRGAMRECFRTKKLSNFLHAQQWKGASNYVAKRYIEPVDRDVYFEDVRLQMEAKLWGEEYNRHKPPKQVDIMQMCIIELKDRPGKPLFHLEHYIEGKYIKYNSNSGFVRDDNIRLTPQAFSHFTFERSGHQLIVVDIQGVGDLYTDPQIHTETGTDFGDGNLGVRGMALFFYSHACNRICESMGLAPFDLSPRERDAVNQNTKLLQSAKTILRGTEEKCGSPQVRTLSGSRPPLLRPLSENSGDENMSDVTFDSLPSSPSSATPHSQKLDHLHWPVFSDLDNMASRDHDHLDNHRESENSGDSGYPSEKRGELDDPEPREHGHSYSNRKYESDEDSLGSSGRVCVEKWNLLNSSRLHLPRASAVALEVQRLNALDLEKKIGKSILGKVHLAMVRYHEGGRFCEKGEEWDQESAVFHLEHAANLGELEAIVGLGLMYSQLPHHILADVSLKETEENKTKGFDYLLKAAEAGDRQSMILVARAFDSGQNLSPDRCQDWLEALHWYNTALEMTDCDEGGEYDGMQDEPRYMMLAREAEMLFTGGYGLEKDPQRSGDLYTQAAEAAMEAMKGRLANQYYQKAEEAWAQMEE

340 wild-type kinases [2] = biological target: T2, 340 wild-type kinases (Homo sapiens, UniProt O15264)
T2 construct: purchased Reaction Biology Europe
T2 sequence (O15264 1-365): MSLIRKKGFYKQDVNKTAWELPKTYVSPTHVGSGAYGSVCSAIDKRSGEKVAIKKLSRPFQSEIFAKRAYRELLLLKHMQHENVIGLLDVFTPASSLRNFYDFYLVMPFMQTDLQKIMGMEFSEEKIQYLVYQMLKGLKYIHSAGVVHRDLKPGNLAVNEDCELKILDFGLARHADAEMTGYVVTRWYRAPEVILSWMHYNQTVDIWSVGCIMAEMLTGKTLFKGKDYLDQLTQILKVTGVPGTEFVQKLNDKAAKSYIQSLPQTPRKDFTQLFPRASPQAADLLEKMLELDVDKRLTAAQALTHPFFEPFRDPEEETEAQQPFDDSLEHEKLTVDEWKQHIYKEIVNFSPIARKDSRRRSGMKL

340 wild-type kinases [3] = biological target: T3, 340 wild-type kinases (Homo sapiens, UniProt P21709)
T3 construct: purchased Reaction Biology Europe
T3 sequence (P21709 26-976): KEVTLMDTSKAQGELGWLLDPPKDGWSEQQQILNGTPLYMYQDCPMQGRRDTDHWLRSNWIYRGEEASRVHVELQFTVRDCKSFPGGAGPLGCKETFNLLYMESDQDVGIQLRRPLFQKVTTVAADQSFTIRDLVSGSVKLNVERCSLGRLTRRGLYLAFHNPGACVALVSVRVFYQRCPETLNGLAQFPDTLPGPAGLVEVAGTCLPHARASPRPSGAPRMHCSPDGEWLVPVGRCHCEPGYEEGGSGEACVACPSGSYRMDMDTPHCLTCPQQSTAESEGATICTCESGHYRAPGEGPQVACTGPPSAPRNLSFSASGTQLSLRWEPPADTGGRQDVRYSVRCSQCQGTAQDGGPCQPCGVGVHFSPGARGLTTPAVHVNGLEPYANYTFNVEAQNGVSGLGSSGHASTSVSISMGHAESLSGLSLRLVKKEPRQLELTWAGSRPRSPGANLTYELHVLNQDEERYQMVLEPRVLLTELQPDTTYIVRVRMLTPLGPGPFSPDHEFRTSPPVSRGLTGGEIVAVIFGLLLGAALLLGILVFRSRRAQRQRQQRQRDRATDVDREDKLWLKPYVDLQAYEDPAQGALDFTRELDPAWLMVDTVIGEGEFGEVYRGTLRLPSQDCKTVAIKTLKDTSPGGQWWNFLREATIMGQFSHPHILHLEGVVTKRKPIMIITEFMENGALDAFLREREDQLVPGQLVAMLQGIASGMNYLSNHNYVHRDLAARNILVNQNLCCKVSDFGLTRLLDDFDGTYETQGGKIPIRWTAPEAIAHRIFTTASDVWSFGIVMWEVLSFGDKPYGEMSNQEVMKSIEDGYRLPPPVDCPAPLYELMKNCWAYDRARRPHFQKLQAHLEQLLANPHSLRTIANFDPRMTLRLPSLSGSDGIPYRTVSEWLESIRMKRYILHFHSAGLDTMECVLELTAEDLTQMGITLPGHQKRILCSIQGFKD

340 wild-type kinases [4] = biological target: T4, 340 wild-type kinases (Homo sapiens, UniProt P23443)
T4 construct: purchased Reaction Biology Europe
T4 sequence (P23443 whole entry): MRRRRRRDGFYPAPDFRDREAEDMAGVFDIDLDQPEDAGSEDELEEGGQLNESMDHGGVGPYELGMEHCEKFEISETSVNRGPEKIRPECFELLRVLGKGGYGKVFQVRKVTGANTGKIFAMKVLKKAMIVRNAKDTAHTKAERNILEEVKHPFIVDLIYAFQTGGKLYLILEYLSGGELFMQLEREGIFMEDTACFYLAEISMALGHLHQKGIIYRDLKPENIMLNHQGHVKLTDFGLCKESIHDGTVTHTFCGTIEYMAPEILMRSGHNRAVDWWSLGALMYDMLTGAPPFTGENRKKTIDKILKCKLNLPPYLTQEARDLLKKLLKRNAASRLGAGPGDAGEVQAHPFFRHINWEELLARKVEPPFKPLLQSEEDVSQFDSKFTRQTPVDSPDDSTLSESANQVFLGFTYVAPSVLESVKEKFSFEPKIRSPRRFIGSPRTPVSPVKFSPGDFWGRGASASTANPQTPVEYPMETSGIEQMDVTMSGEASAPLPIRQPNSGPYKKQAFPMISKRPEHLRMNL

340 wild-type kinases [5] = biological target: T5, 340 wild-type kinases (Homo sapiens, UniProt P24723)
T5 construct: purchased Reaction Biology Europe
T5 sequence (P24723 whole entry): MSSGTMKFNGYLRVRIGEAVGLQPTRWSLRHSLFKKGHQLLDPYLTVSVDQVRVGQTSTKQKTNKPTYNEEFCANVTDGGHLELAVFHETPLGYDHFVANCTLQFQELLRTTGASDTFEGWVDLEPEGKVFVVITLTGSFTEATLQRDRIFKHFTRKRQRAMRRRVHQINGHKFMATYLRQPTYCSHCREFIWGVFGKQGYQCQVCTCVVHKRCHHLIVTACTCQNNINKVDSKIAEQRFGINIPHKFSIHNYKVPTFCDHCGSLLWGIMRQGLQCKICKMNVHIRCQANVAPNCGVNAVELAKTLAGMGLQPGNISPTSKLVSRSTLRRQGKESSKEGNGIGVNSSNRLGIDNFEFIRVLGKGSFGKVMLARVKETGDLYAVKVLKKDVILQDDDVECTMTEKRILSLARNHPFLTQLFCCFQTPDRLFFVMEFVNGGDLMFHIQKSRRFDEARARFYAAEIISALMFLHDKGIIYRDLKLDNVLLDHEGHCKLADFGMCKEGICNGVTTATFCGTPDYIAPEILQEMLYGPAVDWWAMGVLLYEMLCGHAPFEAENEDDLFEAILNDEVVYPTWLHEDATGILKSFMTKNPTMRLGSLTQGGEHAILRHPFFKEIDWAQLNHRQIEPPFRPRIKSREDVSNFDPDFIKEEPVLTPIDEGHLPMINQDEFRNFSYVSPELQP

340 wild-type kinases [6] = biological target: T6, 340 wild-type kinases (Homo sapiens, UniProt P42345)
T6 construct: purchased Reaction Biology Europe

340 wild-type kinases [7] = biological target: T7, 340 wild-type kinases (Homo sapiens, UniProt Q9BYT3)
T7 construct: purchased Reaction Biology Europe
T7 sequence (Q9BYT3 whole entry): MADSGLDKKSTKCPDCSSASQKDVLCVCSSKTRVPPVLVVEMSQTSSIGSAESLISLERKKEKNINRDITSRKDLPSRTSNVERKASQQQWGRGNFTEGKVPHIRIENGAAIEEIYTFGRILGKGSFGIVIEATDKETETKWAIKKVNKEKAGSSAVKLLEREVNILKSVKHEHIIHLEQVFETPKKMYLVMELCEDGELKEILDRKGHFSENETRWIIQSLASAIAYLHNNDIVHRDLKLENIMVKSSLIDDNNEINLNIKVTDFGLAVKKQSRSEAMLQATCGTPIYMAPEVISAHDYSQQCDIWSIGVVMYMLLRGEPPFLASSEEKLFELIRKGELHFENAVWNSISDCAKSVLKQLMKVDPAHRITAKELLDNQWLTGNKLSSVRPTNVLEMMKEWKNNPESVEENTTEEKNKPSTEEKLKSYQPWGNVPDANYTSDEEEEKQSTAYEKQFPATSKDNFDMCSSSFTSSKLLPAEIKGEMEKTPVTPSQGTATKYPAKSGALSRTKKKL

340 wild-type kinases [8] = biological target: T8, 340 wild-type kinases (Homo sapiens, UniProt Q9Y243)
T8 construct: purchased Reaction Biology Europe
T8 sequence (Q9Y243 whole entry): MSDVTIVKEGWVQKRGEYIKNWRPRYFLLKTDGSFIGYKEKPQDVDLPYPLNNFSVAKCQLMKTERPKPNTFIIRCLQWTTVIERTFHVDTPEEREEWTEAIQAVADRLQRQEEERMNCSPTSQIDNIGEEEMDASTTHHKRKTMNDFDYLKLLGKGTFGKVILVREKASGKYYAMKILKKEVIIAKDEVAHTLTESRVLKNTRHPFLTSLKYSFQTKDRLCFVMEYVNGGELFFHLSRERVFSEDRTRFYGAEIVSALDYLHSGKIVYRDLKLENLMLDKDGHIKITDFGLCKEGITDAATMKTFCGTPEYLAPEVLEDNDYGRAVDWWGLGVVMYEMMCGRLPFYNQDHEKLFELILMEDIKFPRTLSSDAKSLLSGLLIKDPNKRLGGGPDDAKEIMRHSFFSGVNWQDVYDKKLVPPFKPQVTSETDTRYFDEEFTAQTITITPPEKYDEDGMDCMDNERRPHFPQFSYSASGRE

**Q.** How did the remaining activity at 0.2 µM (340 wild-type kinases [1]; 0.2 µM 2015, read-out: EEF2K residual activity) turn out when `CNC(=O)c1ccc2c(c1)C(=O)c1ccc(Nc3ccc(F)c(NC(=O)C4CC4)c3)cc1CC2` [Compound 2015] was run?
**A.** Its remaining activity at 0.2 µM is 106%.

**Q.** And the remaining activity at 1 µM (340 wild-type kinases [1]; 1 µM 2015, read-out: EEF2K residual activity)?
**A.** The remaining activity at 1 µM was 98.4%.

**Q.** What about the remaining activity at 0.2 µM (340 wild-type kinases [1]; EEF2K, 0.2 µM, read-out: residual activity) of the same compound?
**A.** Its remaining activity at 0.2 µM is 106%.

**Q.** And the remaining activity at 1 µM (340 wild-type kinases [1]; EEF2K, 1 µM, read-out: residual activity)?
**A.** Its remaining activity at 1 µM is 98.4%.

**Q.** What about the remaining activity at 0.2 µM (340 wild-type kinases [2]; 0.2 µM 2015, read-out: p38delta residual activity) of the same compound?
**A.** Its remaining activity at 0.2 µM is 101%.

**Q.** And the remaining activity at 1 µM (340 wild-type kinases [2]; 1 µM 2015, read-out: p38delta residual activity)?
**A.** Its remaining activity at 1 µM is 90.6%.

**Q.** And the remaining activity at 0.2 µM (340 wild-type kinases [2]; p38delta, 0.2 µM, read-out: residual activity)?
**A.** The remaining activity at 0.2 µM was 101%.

**Q.** What about the remaining activity at 1 µM (340 wild-type kinases [2]; p38delta, 1 µM, read-out: residual activity) of the same compound?
**A.** The remaining activity at 1 µM was 90.6%.

**Q.** And the remaining activity at 0.2 µM (340 wild-type kinases [3]; 0.2 µM 2015, read-out: EPHA1 residual activity)?
**A.** Its remaining activity at 0.2 µM is 87.2%.

**Q.** And the remaining activity at 1 µM (340 wild-type kinases [3]; 1 µM 2015, read-out: EPHA1 residual activity)?
**A.** Its remaining activity at 1 µM is 82.1%.

**Q.** And the remaining activity at 0.2 µM (340 wild-type kinases [3]; EPHA1, 0.2 µM, read-out: residual activity)?
**A.** The remaining activity at 0.2 µM was 87.2%.

**Q.** And the remaining activity at 1 µM (340 wild-type kinases [3]; EPHA1, 1 µM, read-out: residual activity)?
**A.** The remaining activity at 1 µM was 82.1%.

**Q.** And the remaining activity at 0.2 µM (340 wild-type kinases [4]; 0.2 µM 2015, read-out: S6K residual activity)?
**A.** The remaining activity at 0.2 µM was 94.9%.

**Q.** And the remaining activity at 1 µM (340 wild-type kinases [4]; 1 µM 2015, read-out: S6K residual activity)?
**A.** The remaining activity at 1 µM was 95.1%.

**Q.** And the remaining activity at 0.2 µM (340 wild-type kinases [4]; S6K, 0.2 µM, read-out: residual activity)?
**A.** Its remaining activity at 0.2 µM is 94.9%.

**Q.** And the remaining activity at 1 µM (340 wild-type kinases [4]; S6K, 1 µM, read-out: residual activity)?
**A.** The remaining activity at 1 µM was 95.1%.

**Q.** What about the remaining activity at 0.2 µM (340 wild-type kinases [5]; 0.2 µM 2015, read-out: PKCeta residual activity) of the same compound?
**A.** The remaining activity at 0.2 µM was 80.3%.

**Q.** And the remaining activity at 1 µM (340 wild-type kinases [5]; 1 µM 2015, read-out: PKCeta residual activity)?
**A.** Its remaining activity at 1 µM is 90.1%.

**Q.** And the remaining activity at 0.2 µM (340 wild-type kinases [5]; PKCeta, 0.2 µM, read-out: residual activity)?
**A.** The remaining activity at 0.2 µM was 80.3%.

**Q.** What about the remaining activity at 1 µM (340 wild-type kinases [5]; PKCeta, 1 µM, read-out: residual activity) of the same compound?
**A.** The remaining activity at 1 µM was 90.1%.

**Q.** And the remaining activity at 0.2 µM (340 wild-type kinases [6]; 0.2 µM 2015, read-out: MTOR residual activity)?
**A.** The remaining activity at 0.2 µM was 97.9%.

**Q.** And the remaining activity at 1 µM (340 wild-type kinases [6]; 1 µM 2015, read-out: MTOR residual activity)?
**A.** The remaining activity at 1 µM was 101%.

**Q.** What about the remaining activity at 0.2 µM (340 wild-type kinases [6]; MTOR, 0.2 µM, read-out: residual activity) of the same compound?
**A.** The remaining activity at 0.2 µM was 97.9%.

**Q.** And the remaining activity at 1 µM (340 wild-type kinases [6]; MTOR, 1 µM, read-out: residual activity)?
**A.** The remaining activity at 1 µM was 101%.

**Q.** What about the remaining activity at 0.2 µM (340 wild-type kinases [7]; 0.2 µM 2015, read-out: STK33 residual activity) of the same compound?
**A.** The remaining activity at 0.2 µM was 99.1%.

**Q.** What about the remaining activity at 1 µM (340 wild-type kinases [7]; 1 µM 2015, read-out: STK33 residual activity) of the same compound?
**A.** The remaining activity at 1 µM was 96.3%.

**Q.** And the remaining activity at 0.2 µM (340 wild-type kinases [7]; STK33, 0.2 µM, read-out: residual activity)?
**A.** The remaining activity at 0.2 µM was 99.1%.

**Q.** And the remaining activity at 1 µM (340 wild-type kinases [7]; STK33, 1 µM, read-out: residual activity)?
**A.** The remaining activity at 1 µM was 96.3%.

**Q.** What about the remaining activity at 0.2 µM (340 wild-type kinases [8]; 0.2 µM 2015, read-out: AKT3 residual activity) of the same compound?
**A.** Its remaining activity at 0.2 µM is 96%.

**Q.** And the remaining activity at 1 µM (340 wild-type kinases [8]; 1 µM 2015, read-out: AKT3 residual activity)?
**A.** Its remaining activity at 1 µM is 89.5%.

**Q.** What about the remaining activity at 0.2 µM (340 wild-type kinases [8]; AKT3, 0.2 µM, read-out: residual activity) of the same compound?
**A.** Its remaining activity at 0.2 µM is 96%.

**Q.** What about the remaining activity at 1 µM (340 wild-type kinases [8]; AKT3, 1 µM, read-out: residual activity) of the same compound?
**A.** The remaining activity at 1 µM was 89.5%.
